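These data come from cells grown in 96-well plates and exposed to compound for 48 hours at five concentrations. At the GI50, growth is halved. The concentration for full growth arrest is given as TGI.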 Where only a bound is given, the exact number is not on record here.

In one assay the test system is IGROV1 ovarian. Kind of assay: NCI tumour cell line growth inhibition, 48 h.
For `COc1cc(-c2csc(NC(=O)c3cc(C(F)(F)F)cc(C(F)(F)F)c3)n2)cc(OC)c1OC`, the GI50 was 4.37 µM and the TGI was over 100 µM.

`CC(C)=CCC12Cc3ccc(O)cc3C(C(C)CN1)C2C` (stereo unspecified) had a TGI of over 100 µM.

`CC[N+]1(C)CCC(O)(c2ccc(C)cc2)C(C(=O)c2ccc(C)cc2)C1` (stereo unspecified): the TGI was over 100 µM.

As for `CC(=O)c1cccc(N(/C=C/C(=O)C(F)(F)F)CC(=O)c2ccc(Cl)cc2)c1`, the GI50 is over 100 µM and the TGI is over 100 µM.

Take `COc1ccc(Cl)cc1Nc1nc(C(F)(F)F)ccc1C(=O)NN`: the GI50 was 7.83 µM and the TGI was over 85.1 µM.

In turn, `CC(C)c1ccc2nc3ccc(C(=O)NCCN(C)C)cn3c(=O)c2c1` showed a TGI of over 100 µM.

Take `C#C[C@]1(O)CC[C@H]2[C@@H]3CC=C4c5nc(Nc6ccccn6)sc5CC[C@]4(C)[C@H]3CC[C@@]21C`: the GI50 is 2.27 µM and the TGI turned out to be 10.9 µM.

On to `O=c1oc2ccccc2c(O)c1C=NC(=S)c1ccncc1`, for which the TGI was over 100 µM.

On to `CC(O)CNC1=CC(=O)C(=O)c2ccccc21` (stereo unspecified), for which the TGI came to 33.8 µM.

`CC1=C(C(=O)NC2CCCCC2)CC(C(=O)NC2CCCCC2)=C(C)N1` showed a TGI of over 100 µM.

As to `Cc1cc2c(C(C)C)c(O)c(O)c(C=Nc3cc(C(F)(F)F)ccc3Cl)c2c(O)c1-c1c(C)cc2c(C(C)C)c(O)c(O)c(C=Nc3cc(C(F)(F)F)ccc3Cl)c2c1O`, the TGI turned out to be 75 µM.

For `O=c1nc(-c2ccccc2)c2c3c(cccn13)CCC2`, the TGI is over 100 µM.

For the compound `CC(CO)[C@H]1OC(=O)C=C2[C@@]13O[C@@H]3[C@H]1OC(=O)[C@@]3(C)[C@H]4O[C@H]4C[C@@]2(C)[C@@H]13` (stereo partly specified), the TGI turned out to be 12 µM.

As to `O=C(c1ccccc1)c1c(CC(O)c2cccnc2)n(C(=O)c2ccccc2)c2ccccc12` (stereo unspecified), the TGI came out at 55.5 µM.

For `C=C(C)C1CC2C(C)=C(OC(C)=O)C1n1c(=O)c3cc4ccccc4cc3c(=O)n12` (stereo unspecified), the TGI is over 100 µM.

Turning to `COc1cc(/C=C2\CN(C)CC3=C2Nc2nc(SC)[nH]c(=O)c2C3c2cc(OC)c(OC)c(OC)c2)cc(OC)c1OC` (stereo unspecified), the GI50 is 3.1 µM and the TGI was 12.6 µM.

For `COc1cc(Nc2ccnc(N3CCN(c4ccnc5cc(Cl)ccc45)CC3)n2)cc(OC)c1`, the GI50 was 1.36 µM and the TGI is over 26.1 µM.

Consider `O=C(CC(C(=O)c1cccs1)c1ccc2c(c1)OCO2)c1ccc(Br)cc1` (stereo unspecified), for which the TGI was over 100 µM.

On to `C[C@]12CC[C@@H]3c4ccc(O)c([N+](=O)[O-])c4CC[C@H]3[C@@H]1CC[C@@H]2NS(=O)(=O)c1ccc(C(F)(F)F)cc1`, for which the GI50 is 2.12 µM and the TGI was 4.68 µM.

For the compound `Cc1c(C)c2cc3c(=O)ccoc3c(C)c2oc1=O`, the TGI is over 100 µM.

`N#Cc1ccc(-c2nc(C#N)c(N)o2)cc1` displayed a TGI of over 10 µM.

For a further assay, the system named is KM12 colon. Nature of the assay: NCI tumour cell line growth inhibition, 48 h.
On to `COc1cc(-c2csc(NC(=O)c3cc(C(F)(F)F)cc(C(F)(F)F)c3)n2)cc(OC)c1OC`, for which the GI50 is 2860 nM and the TGI was over 100 µM.

For the compound `CC(C)=CCC12Cc3ccc(O)cc3C(C(C)CN1)C2C` (stereo unspecified), the TGI is over 100 µM.

Take `CC[N+]1(C)CCC(O)(c2ccc(C)cc2)C(C(=O)c2ccc(C)cc2)C1` (stereo unspecified): the TGI was over 100 µM.

As for `CC(=O)c1cccc(N(/C=C/C(=O)C(F)(F)F)CC(=O)c2ccc(Cl)cc2)c1`, the GI50 was over 100000 nM and the TGI was over 100 µM.

Consider `COc1ccc(Cl)cc1Nc1nc(C(F)(F)F)ccc1C(=O)NN`, for which the GI50 is 9080 nM and the TGI is over 100 µM.

Compound `CC(C)c1ccc2nc3ccc(C(=O)NCCN(C)C)cn3c(=O)c2c1` yielded a TGI of 33 µM.

With `C#C[C@]1(O)CC[C@H]2[C@@H]3CC=C4c5nc(Nc6ccccn6)sc5CC[C@]4(C)[C@H]3CC[C@@]21C`, the GI50 was 1700 nM and the TGI is 4.5 µM.

With `O=c1oc2ccccc2c(O)c1C=NC(=S)c1ccncc1`, the TGI was over 100 µM.

As to `CC(O)CNC1=CC(=O)C(=O)c2ccccc21` (stereo unspecified), the TGI was 56.2 µM.

For `CC1=C(C(=O)NC2CCCCC2)CC(C(=O)NC2CCCCC2)=C(C)N1`, the TGI was over 100 µM.

For `Cc1cc2c(C(C)C)c(O)c(O)c(C=Nc3cc(C(F)(F)F)ccc3Cl)c2c(O)c1-c1c(C)cc2c(C(C)C)c(O)c(O)c(C=Nc3cc(C(F)(F)F)ccc3Cl)c2c1O`, the TGI was 92.4 µM.

With `O=c1nc(-c2ccccc2)c2c3c(cccn13)CCC2`, the TGI is over 100 µM.

Regarding `CC(CO)[C@H]1OC(=O)C=C2[C@@]13O[C@@H]3[C@H]1OC(=O)[C@@]3(C)[C@H]4O[C@H]4C[C@@]2(C)[C@@H]13` (stereo partly specified), the TGI turned out to be 14.9 µM.

With `O=C(c1ccccc1)c1c(CC(O)c2cccnc2)n(C(=O)c2ccccc2)c2ccccc12` (stereo unspecified), the TGI is 36.3 µM.

Take `C=C(C)C1CC2C(C)=C(OC(C)=O)C1n1c(=O)c3cc4ccccc4cc3c(=O)n12` (stereo unspecified): the TGI is over 100 µM.

Regarding `COc1cc(/C=C2\CN(C)CC3=C2Nc2nc(SC)[nH]c(=O)c2C3c2cc(OC)c(OC)c(OC)c2)cc(OC)c1OC` (stereo unspecified), the GI50 is 1700 nM and the TGI was determined as 3.21 µM.

Consider `COc1cc(Nc2ccnc(N3CCN(c4ccnc5cc(Cl)ccc45)CC3)n2)cc(OC)c1`, for which the GI50 is 101 nM and the TGI is over 100 µM.

In the case of `O=C(CC(C(=O)c1cccs1)c1ccc2c(c1)OCO2)c1ccc(Br)cc1` (stereo unspecified), the TGI is over 100 µM.

With `C[C@]12CC[C@@H]3c4ccc(O)c([N+](=O)[O-])c4CC[C@H]3[C@@H]1CC[C@@H]2NS(=O)(=O)c1ccc(C(F)(F)F)cc1`, the GI50 is 1760 nM and the TGI came to 3.51 µM.

`COC(=O)C1=C(OC(=O)c2ccc(Cl)cc2)C(C(=O)OC)[C@@]2(O)[C@@H](C(=O)OC)C(c3ccccc3C(F)(F)F)C[C@@H]1[C@@H]2C(=O)OC` (stereo partly specified): the GI50 is 23900 nM and the TGI was 64.2 µM.

Turning to `Cc1c(C)c2cc3c(=O)ccoc3c(C)c2oc1=O`, the TGI is over 100 µM.

As to `N#Cc1ccc(-c2nc(C#N)c(N)o2)cc1`, the TGI was over 10 µM.

The subject of a further assay is MCF7 breast. Nature of the assay: NCI tumour cell line growth inhibition, 48 h.
For `COc1cc(-c2csc(NC(=O)c3cc(C(F)(F)F)cc(C(F)(F)F)c3)n2)cc(OC)c1OC`, the GI50 is 2.16 µM and the TGI was over 100 µM.

In the case of `CC(C)=CCC12Cc3ccc(O)cc3C(C(C)CN1)C2C` (stereo unspecified), the TGI was over 100 µM.

For `CC[N+]1(C)CCC(O)(c2ccc(C)cc2)C(C(=O)c2ccc(C)cc2)C1` (stereo unspecified), the TGI came out at 36.9 µM.

As for `CC(=O)c1cccc(N(/C=C/C(=O)C(F)(F)F)CC(=O)c2ccc(Cl)cc2)c1`, the GI50 was over 100 µM and the TGI is over 100 µM.

With `COc1ccc(Cl)cc1Nc1nc(C(F)(F)F)ccc1C(=O)NN`, the GI50 is 18.7 µM and the TGI is over 100 µM.

(Values after PubChem BioAssay (NCI).)
